# Measurements published in US11389449B2, “Treatment of metabolic syndrome with an sGC stimulator” (Cyclerion Therapeutics, Inc., priority 2017, dated 2022).
# What was measured:
# ZSF1 obese rats [1] = experiment: Oral glucose tolerance test (OGTT) and fasting glucose in ZSF1 rats at week 10; type: in vivo, rat
# Experimental: Male ZSF1 rats (body weight 400-430 grams (lean control) and 500-605 grams (obese) at baseline) were used for this study. All animals were housed in a room under controlled conditions of temperature (72±8° F.), relative humidity of 30-70% and a 12-hour light-dark cycle (lights on at 6:00 AM and off at 6:00 PM) at a fully AAALAC accredited, USDA registered and OLAW assured laboratory animal research facility. All animals were allowed free access to rodent chow (Purina 5008+/−test articles) and water (+/−enalapril).
# (§1) Blood and 24-hour urine samples were obtained from all animals at day 0 (15 weeks of age; prior to the initiation of enalapril treatment). Animals in Groups 3, 7, 8 and 9 were placed on drinking water containing enalapril and kept on Purina 5008 rodent chow (C13000). Animals in Group 1, 2, 4, 5 and 6 were kept on Purina 5008 rodent chow and drinking water. Ten days after the initiation of enalapril treatment, blood and 24-hour urine samples were collected from all animals. After day 10 blood and urine collections, animals in Groups 4, 5 and 6 received Compound I at 1, 3 and 10 mg/kg/day, respectively for 11 weeks. In addition to enalapril treatment, animals in Groups 7, 8 and 9 received Compound I at 1, 3 and 10 mg/kg/day, respectively for an additional 11 weeks.
# 10 weeks after the initiation of Compound I treatment, animals (27 weeks of age) were fasted for 18 hours. Serum samples were collected for the measurement of fasting insulin levels. Serum insulin levels were determined using the Rat Insulin ELISA kit (Cat #ELR-Insulin, RayBiotech, Inc.)
# For OGTT, animals were given glucose solution (50% Dextrose) at 2 g/kg via oral gavage. Blood samples were collected prior to oral glucose administration (0 minute) and 30, 60, 90, 120 and 180 minutes after administration. Blood glucose levels were measured using a standard blood glucose monitoring system (AlphaTRAK). The blood glucose reading at time 0 (prior to glucose administration) corresponds to the fasting glucose measurement.
# The data are expressed as mean±SEM. […] One-tailed tests were used for comparison of variables. Statistical significance is indicated by P values less than 0.05.
# ZSF1 obese rats [2] = experiment: ZSF1 rat study: serum clinical chemistry (cholesterol, triglycerides), body weight, clinical observations; type: in vivo
# Source text: as §1
# Body weight and 24-hour water intake were obtained at least once every other week. 24-hour food intake was measured at baseline and week 8.
# Plasma (for biomarker) and serum (for clinical chemistry analysis) samples were collected from all treatment groups at baseline, day 10, weeks 5 and 9 prior to placing the animals into the metabolic cages. Plasma samples were obtained from Groups 3-9 for measurement of compound exposure levels at weeks 5 and 11. Terminal plasma and serum samples were obtained at necropsy.
# For serum samples, blood was collected in serum separator tubes, maintained at room temperature for at least 30 minutes and then centrifuged at 6000 rpm for 10 minutes. Serum samples were stored at −80° C. until analysis. Urine and serum samples were analyzed using the Randox Daytona Clinical Chemistry Analyzer. All measurements were performed in accordance with manufacturer's instructions.
# Animal #8 (in Group 3, ZSF1—enalapril 3 mg/kg/day) was found dead 3 days after the initiation of enalapril treatment.
# [3] = system: obese/high fat diet C57Bl/6J mice; experiment: DIO mouse model: fasting plasma biomarkers and liver triglycerides; type: in vivo; conditions: DIO HFD mice, approx 6 mg/kg in diet
# Source text: The objective of this animal study was to evaluate the effects of Compound I in the mouse diet induced obesity (DIO) model. Assessments included body weight, food intake, oral glucose tolerance test (OGTT) and fasting plasma biomarkers of metabolic control.
# Male C57Bl/6J mice with baseline body weights of 25.0-29.0 grams (lean controls) and 31.5-45.0 grams (obese/high fat diet treated) respectively, were used for this study. The lean mice (n=8) were maintained on a standard chow diet. The obese mice were given 60% high fat diet (HFD) starting at 6 weeks of age. All animals were allowed free access to drinking water and chow. The study was begun when the mice were 12 weeks of age and concluded after 4 weeks (16 weeks of age). The obese control group (n=8 mice) was maintained on HFD. The Compound I group (n=8 obese mice) was treated with HFD containing 90 mg Compound I/kg (an approximate dose of 6 mg/kg). Body weights were determined twice weekly and food intake was measured daily for 28 days. An OGTT was performed on each animal at day 28 or 29 and the animals were sacrificed on the following day. On the terminal day, 3 hour fasted blood was collected for compound concentrations and plasma biomarkers analysis including glucose, insulin and triglycerides. Organs were collected, weighed and snap frozen in liquid nitrogen for further analysis.
# [4] = obese ZSF1 rats, 3 and 10 mg/kg, compared to placebo and enalapril, not statistically significant
smiles,measurement,setting,value
OC(CNc1nc(-c2cc(-c3ccon3)n(Cc3ccccc3F)n2)ncc1F)(C(F)(F)F)C(F)(F)F [Compound I],Fasting Blood Glucose (0 minute),ZSF1 obese rats [1]; Compound I 1 mpk,267 ± 38 mg/dL
same,OGTT Area Under Curve (AUC),ZSF1 obese rats [1]; Compound I 1 mpk,84945 ± 5344
same,OGTT Blood Glucose 120 minutes,ZSF1 obese rats [1]; Compound I 1 mpk,475 ± 33 mg/dL
same,OGTT Blood Glucose 180 minutes,ZSF1 obese rats [1]; Compound I 1 mpk,398 ± 30 mg/dL
same,Fasting Blood Glucose (0 minute),ZSF1 obese rats [1]; Compound I 3 mpk,202 ± 10 mg/dL
same,OGTT Area Under Curve (AUC),ZSF1 obese rats [1]; Compound I 3 mpk,77402 ± 3526
same,OGTT Blood Glucose 120 minutes,ZSF1 obese rats [1]; Compound I 3 mpk,424 ± 19 mg/dL
same,OGTT Blood Glucose 180 minutes,ZSF1 obese rats [1]; Compound I 3 mpk,355 ± 24 mg/dL
same,Fasting Blood Glucose (0 minute),ZSF1 obese rats [1]; Compound I 10 mpk,194 ± 9 mg/dL
same,OGTT Area Under Curve (AUC),ZSF1 obese rats [1]; Compound I 10 mpk,77090 ± 1817
same,OGTT Blood Glucose 120 minutes,ZSF1 obese rats [1]; Compound I 10 mpk,421 ± 11 mg/dL
same,OGTT Blood Glucose 180 minutes,ZSF1 obese rats [1]; Compound I 10 mpk,385 ± 14 mg/dL
same,reduction of weight,ZSF1 obese rats [2]; obese ZSF1 rats,No effects were observed
same,effect on cholesterol levels,ZSF1 obese rats [2]; [4],some reduction in cholesterol was observed
same,effect on triglyceride levels,ZSF1 obese rats [2]; [4],some reduction in TGs was observed
same,clinical observation,"ZSF1 obese rats [2]; rat, in vivo, 1 mg/kg/day",enlarged left kidney's filled with brown fluid consistent with hydronephrosis
same,Fasting plasma glucose,[3]; after 4 weeks,unchanged
same,plasma insulin change vs obese controls,"[3]; after 4 weeks, P<0.01",−53%
same,plasma triglycerides change vs obese controls,"[3]; after 4 weeks, P<0.01",−30%
same,circulating and liver triglycerides,[3]; compared to obese controls,lowered
